# What was measured:
# Assay type in all cases: in vivo
# [1] = test system: Avena fatua (AVEFA); assay: Glasshouse herbicide test, pre- and post-emergence, Avena fatua; details: 250 g/h, evaluated after 13 days; for AVEFA POST, percentage damage caused to the plant (five point scale): post-emergence; for AVEFA PRE, percentage damage caused to the plant (five point scale): pre-emergence
# Experimental: (§1) Seeds of a variety of test species are sown in standard soil in pots (Lolium perenne (LOLPE), Setaria faberi (SETFA), Alopecurus myosuroides (ALOMY), Echinochloa crus-galli (ECHCG), Avena fatua (AVEFA)). After cultivation for one day (pre-emergence) or after 8 days cultivation (post-emergence) under controlled conditions in a glasshouse (at 24/16° C., day/night; 14 hours light; 65% humidity), the plants are sprayed with an aqueous spray solution derived from the formulation of the technical active ingredient in acetone/water (50:50) solution containing 0.5% Tween 20 (polyoxyethelyene sorbitan monolaurate, CAS RN 9005-64-5). Compounds are applied at […]. The test plants are then grown in a glasshouse under controlled conditions in a glasshouse (at 24/16° C., day/night; 14 hours light; 65% humidity) and watered twice daily. After 13 days for pre and post-emergence, the test is evaluated for the percentage damage caused to the plant. The biological activities are shown in the following table on a five point scale (5=80-100%; 4=60-79%; 3=40-59%; 2=20-39%; 1=0-19%).
# [2] = test system: Lolium perenne (LOLPE); assay: Glasshouse herbicide test, pre- and post-emergence, Lolium perenne; details: 250 g/h, evaluated after 13 days; for LOLPE POST, percentage damage caused to the plant (five point scale): post-emergence; for LOLPE PRE, percentage damage caused to the plant (five point scale): pre-emergence
# Experimental: as §1
# [3] = test system: Echinochloa crus-galli (ECHCG); assay: Glasshouse herbicide test, pre- and post-emergence, Echinochloa crus-galli; details: 250 g/h, evaluated after 13 days; for ECHCG POST, percentage damage caused to the plant (five point scale): post-emergence; for ECHCG PRE, percentage damage caused to the plant (five point scale): pre-emergence
# Experimental: as §1
# [4] = test system: Alopecurus myosuroides (ALOMY); assay: Glasshouse herbicide test, pre- and post-emergence, Alopecurus myosuroides; details: 250 g/h, evaluated after 13 days; for ALOMY POST, percentage damage caused to the plant (five point scale): post-emergence; for ALOMY PRE, percentage damage caused to the plant (five point scale): pre-emergence
# Experimental: as §1
# [5] = test system: Setaria faberi (SETFA); assay: Glasshouse herbicide test, pre- and post-emergence, Setaria faberi; details: 250 g/h, evaluated after 13 days; for SETFA POST, percentage damage caused to the plant (five point scale): post-emergence; for SETFA PRE, percentage damage caused to the plant (five point scale): pre-emergence
# Experimental: as §1
Compound,"AVEFA POST, percentage damage caused to the plant (five point scale) [1]","AVEFA PRE, percentage damage caused to the plant (five point scale) [1]","LOLPE POST, percentage damage caused to the plant (five point scale) [2]","LOLPE PRE, percentage damage caused to the plant (five point scale) [2]","ECHCG POST, percentage damage caused to the plant (five point scale) [3]","ECHCG PRE, percentage damage caused to the plant (five point scale) [3]","ALOMY POST, percentage damage caused to the plant (five point scale) [4]","ALOMY PRE, percentage damage caused to the plant (five point scale) [4]","SETFA POST, percentage damage caused to the plant (five point scale) [5]","SETFA PRE, percentage damage caused to the plant (five point scale) [5]"
CC#Cc1ccc(C2C(=O)[C@@H]3[C@@H]4O[C@@H](C[C@@H]4C4OCCO4)[C@@H]3C2=O)c(OC)c1 (mixture of isomers) [Compound 1.18],5 (5=80-100%),4 (4=60-79%),5 (5=80-100%),5 (5=80-100%),5 (5=80-100%),5 (5=80-100%),5 (5=80-100%),4 (4=60-79%),5 (5=80-100%),5 (5=80-100%)
CC#Cc1ccc(C2C(=O)[C@@H]3[C@@H]4O[C@@H](C[C@H]4/C=N/OC)[C@@H]3C2=O)c(OC)c1 (mixture of isomers) [Compound 1.17],5 (5=80-100%),5 (5=80-100%),5 (5=80-100%),5 (5=80-100%),5 (5=80-100%),5 (5=80-100%),5 (5=80-100%),5 (5=80-100%),5 (5=80-100%),5 (5=80-100%)
CC#Cc1ccc(C2=C(OC(=O)C(C)C)[C@@H]3[C@H](C2=O)[C@@H]2O[C@H]3C[C@@H]2COC)c(OC)c1 (racemic) [Compound 1.27],5 (5=80-100%),5 (5=80-100%),5 (5=80-100%),5 (5=80-100%),5 (5=80-100%),5 (5=80-100%),5 (5=80-100%),5 (5=80-100%),5 (5=80-100%),5 (5=80-100%)
CC#Cc1ccc(C2C(=O)[C@@H]3[C@@H]4O[C@@H](C[C@H]4CC)[C@@H]3C2=O)c(OC)c1 (stereo partly shown) [Compound 1.24],5 (5=80-100%),–,–,5 (5=80-100%),–,5 (5=80-100%),–,5 (5=80-100%),–,5 (5=80-100%)
CC#Cc1ccc(C2C(=O)[C@@H]3[C@H](C2=O)[C@H]2C=C(C)[C@@H]3O2)c(OC)c1 (mixture of isomers) [Compound 1.16],5 (5=80-100%),5 (5=80-100%),5 (5=80-100%),5 (5=80-100%),5 (5=80-100%),5 (5=80-100%),5 (5=80-100%),5 (5=80-100%),5 (5=80-100%),5 (5=80-100%)
CC#Cc1ccc(C2=C(OC(=O)C(C)(C)C)[C@@H]3[C@H](C2=O)[C@@H]2O[C@H]3C[C@@H]2COC)c(OC)c1 (racemic) [Compound 1.26],5 (5=80-100%),5 (5=80-100%),5 (5=80-100%),5 (5=80-100%),5 (5=80-100%),5 (5=80-100%),5 (5=80-100%),5 (5=80-100%),5 (5=80-100%),5 (5=80-100%)
CC#Cc1ccc(C2C(=O)[C@@H]3[C@H](C2=O)[C@H]2CC[C@@H]3O2)c(OCC)c1 (mixture of isomers) [Compound 1.30],5 (5=80-100%),5 (5=80-100%),5 (5=80-100%),5 (5=80-100%),5 (5=80-100%),5 (5=80-100%),5 (5=80-100%),5 (5=80-100%),–,5 (5=80-100%)
CC#Cc1ccc(C2C(=O)[C@H]3[C@@H]4CC[C@@](C)(O4)[C@H]3C2=O)c(OC)c1 (stereo partly shown) [Compound 1.22],5 (5=80-100%),5 (5=80-100%),5 (5=80-100%),5 (5=80-100%),5 (5=80-100%),5 (5=80-100%),5 (5=80-100%),5 (5=80-100%),5 (5=80-100%),5 (5=80-100%)
CC#Cc1ccc(C2C(=O)[C@@H]3[C@@H]4O[C@@H](C[C@H]4CC)[C@@H]3C2=O)c(OC)c1 (stereo partly shown) [Compound 1.23],5 (5=80-100%),5 (5=80-100%),5 (5=80-100%),5 (5=80-100%),5 (5=80-100%),5 (5=80-100%),5 (5=80-100%),5 (5=80-100%),5 (5=80-100%),5 (5=80-100%)
CC#Cc1ccc(C2=C(OC(C)=O)[C@@H]3[C@H](C2=O)[C@@H]2O[C@H]3C[C@@H]2COC)c(OC)c1 (racemic) [Compound 1.29],5 (5=80-100%),5 (5=80-100%),5 (5=80-100%),5 (5=80-100%),5 (5=80-100%),5 (5=80-100%),5 (5=80-100%),5 (5=80-100%),5 (5=80-100%),5 (5=80-100%)
"CC#Cc1ccc(C2C(=O)[C@@H]3[C@@H]4O[C@@H](C[C@@H]4COC)[C@@H]3C2=O)c(OC)c1 (mixture of isomers) [Compound 1.9, 8-methoxymethyl-4-[2-methoxy-4-(prop-1-yn-1-yl)phenyl]-10-oxatricyclo[5.2.1.0^2,6]decane-3,5-dione]",5 (5=80-100%),5 (5=80-100%),5 (5=80-100%),5 (5=80-100%),5 (5=80-100%),5 (5=80-100%),5 (5=80-100%),5 (5=80-100%),5 (5=80-100%),5 (5=80-100%)
"CC#Cc1ccc(C2=C(OC(=O)C(C)C)[C@@H]3[C@H](C2=O)[C@H]2CC[C@@H]3O2)c(OC)c1 (racemic) [Compound 1.1, isobutyric acid 4-(2-methoxy-4-prop-1-ynyl-phenyl)-5-oxo-10-oxa-tricyclo[5.2.1.0^2,6]dec-3-en-3-yl ester]",5 (5=80-100%),5 (5=80-100%),5 (5=80-100%),5 (5=80-100%),5 (5=80-100%),5 (5=80-100%),–,–,5 (5=80-100%),5 (5=80-100%)
